PMC10410440, “Preclinical PK investigation of a novel IDO1/TDO dual inhibitor—SHR9146 in mouse plasma and tissues by LC-MS/MS” (Frontiers in Oncology, 2023)
“Also recorded” adds a separate entry of the source.

Experiment: Stability of SHR9146 in mouse plasma, whole blood and post-preparative samples
Assay type: in vitro ADME
Procedure: The plasma samples were examined under different conditions, including at room temperature for 6 h, three freeze–thaw cycles, and at −20°C and −70°C for 50 days. Post-preparative plasma samples were studied after being placed at room temperature for 24 h. […] Samples were considered to be stable if the deviations between measured concentration and the spiked values were within ±15%.

[1] = mouse plasma, after three freeze–thaw cycles, QC spiked 0.15 μg/mL, n=3
[2] = mouse plasma, after three freeze–thaw cycles, QC spiked 40 μg/mL, n=3
[3] = mouse plasma, at -70 °C for 50 days, QC spiked 0.15 μg/mL, n=3
[4] = mouse plasma, at -70 °C for 50 days, QC spiked 40 μg/mL, n=3
[5] = mouse plasma, at room temperature for 6 h, QC spiked 0.15 μg/mL, n=3
[6] = mouse plasma, at room temperature for 6 h, QC spiked 40 μg/mL, n=3
[7] = mouse plasma, at −20 °C for 50 days, QC spiked 0.15 μg/mL, n=3
[8] = mouse plasma, at −20 °C for 50 days, QC spiked 40 μg/mL, n=3
[9] = mouse whole blood samples at room temperature for 2 h, QC spiked 0.15 μg/mL, n=3
[10] = mouse whole blood samples at room temperature for 2 h, QC spiked 40 μg/mL, n=3
[11] = post-preparation plasma samples at room temperature for 24 h, QC spiked 0.15 μg/mL, n=3
[12] = post-preparation plasma samples at room temperature for 24 h, QC spiked 40 μg/mL, n=3

With `OCCn1cc(-c2ccc(N3CCC([C@H]4c5c(F)cccc5-c5cncn54)CC3)cc2)cn1` [SHR9146] the “RE” value (mouse plasma samples at room temperature for 6 h, QC levels not separated) was −11.1%, the Measured value [1] was 0.151 ± 0.002 µg/mL and the RE [1] was 1.0%. For the same compound, the Measured value [2] was 40.2 ± 0.33 µg/mL, the RE [2] was 0.6% and the Measured value [3] was 0.151 ± 0.004 µg/mL. It also gave an RE [3] of 0.5%, a Measured value [4] of 39.5 ± 0.26 µg/mL and an RE [4] of −1.2%. The Measured value [5] was 0.133 ± 0.002 µg/mL, the RE [5] was −11.1% and the Measured value [6] was 35.6 ± 0.17 µg/mL. For the same compound, the RE [6] was −11.1%, the Measured value [7] was 0.148 ± 0.004 µg/mL and the RE [7] was −1.6%. The Measured value [8] was 39.5 ± 0.11 µg/mL, the RE [8] was −1.2% and the Measured value [9] was 0.145 ± 0.002 µg/mL. The RE [9] was −0.5%, the Measured value [10] was 39.4 ± 0.22 µg/mL and the RE [10] was −0.1%. The Measured value [11] was 0.151 ± 0.003 µg/mL, the RE [11] was 0.8% and the Measured value [12] was 40.3 ± 0.09 µg/mL. For the same compound, the RE [12] was 0.8% and the stability in bio-samples (various storage conditions, stable if deviation within ±15%) was “stable in all the tested bio-samples; also recorded: stable under various storage conditions”.
